# Measured values published in patent US20260183356A1, “NOVEL COMBINATION BASED ON RIFAXIMIN AND PROBIOTIC YEASTS, COMPOSITIONS CONTAINING IT AND THEIR USE IN THERAPY” (NYUMA PHARMA SRL, priority 2022, published 2026).
# What was measured:
# [1] = system: Bifidobacterium longum W11; assay: Microdilution test, control bacterial strain Bifidobacterium longum (growth abatement, OD600); type: cell-based; settings: for Abatement of strain growth: Bifidobacterium longum W11
# Protocol: (§1) The test aims to assess the in vitro susceptibility of the yeast Kluyveromyces marxianus to the antibiotic rifaximin. The test is performed by assaying 8 scalar dilutions of rifaximin in liquid culture medium (microdilution). Bacterial strains are tested in parallel as controls. Rifaximin is a synthetic molecule derived from rifamycin. The powder is characterized by poor solubility in water and tendency to self-aggregate in the liquid phase. A preliminary step is then performed to set the solubility conditions of rifaximin at the highest concentration used in the test (0.5 mg/ml). The following strains were used • Kluyveromyces marxianus B099 • Bifidobacterium longum […] • Escherichia coli ATCC 8739 The Escherichia coli bacterial strain was revitalized from a reference stock suspension stored at -80° C. After thawing, working cultures were set up by growing the strain in suitable plate medium under the optimal growth conditions. The other strains were obtained after plating on agarized culture medium of the specific matrices and subsequent isolation of pure colonies. In Table 1 the strains and the growth and inoculation conditions are set forth. [table] In the microdilution test, broth-cultures of the test microorganisms are set up in triplicates in the presence of 8 different concentrations of rifaximin, which are selected in agreement with the client, and 1 concentration of rifamycin corresponding to the highest concentration selected for rifaximin. 100 μl of a solution, 2 times more concentrated (2×) than the desired concentration, and 100 μl of the microbial suspension at a titer given in Table 2.2.1, were added to each well of the 96-wells plates. The 8 concentrations of rifaximin are produced from the 50 mg/ml solution in DMSO in TSB and in parallel in SDB. The final test concentrations are as follows: 0.5 mg/ml-0.25 mg/ml-0.125 mg/ml-0.063 mg/ml-0.031 mg/ml-0.015 mg/ml-0.0078 mg/ml-0.0039 mg/ml. Following the absorbance measurement on the spectrophotometer, the mean of the data recorded for each concentration and the mean of the data from the controls in DMSO or sterile water are calculated. To estimate the microbial growth and determine MIC from the mean data obtained (in the test and controls), the blank data are subtracted and then the control data and the test data are compared with each other to assess any growth or growth inhibition of each strain tested. The growth inhibition is calculated as a percentage by the following formula: [formula] • wherein • A: Mean OD of control • B: Mean OD of the sample at the concentration tested • MIC is considered the lowest concentration of product that can give at least 90% growth inhibition. A solution of rifamycin is prepared, at the 50 mg/ml concentration in sterile water, which is then diluted in tryptic soy broth (TSB) and in parallel in Sabouraud dextrose broth (SDB) until the 0.5 mg/ml concentration used in the test is obtained. The plates are incubated at the optimal temperatures and growth conditions of the various strains tested as described in Example 5. After the days of incubation have passed, the absorbance at 600 nm (OD600) is measured by spectrophotometer. The mean values after subtracting the blank are used to estimate microbial growth and determine MIC.
# [2] = system: Kluyveromyces marxianus B099; assay: Microdilution test, susceptibility of Kluyveromyces marxianus to the antibiotic (growth abatement, OD600); type: cell-based
# Protocol: as §1
# [3] = system: Escherichia coli ATCC 8739; assay: Microdilution test, control bacterial strain Escherichia coli (growth abatement, OD600); type: cell-based
# Protocol: as §1
# [4] = Preliminary solubilization test in DMSO; type: physicochemical; settings: starting stock solution
# Protocol: The test aims to assess the in vitro susceptibility of the yeast Kluyveromyces marxianus to the antibiotic rifaximin. The test is performed by assaying 8 scalar dilutions of rifaximin in liquid culture medium (microdilution). Bacterial strains are tested in parallel as controls. Rifaximin is a synthetic molecule derived from rifamycin. The powder is characterized by poor solubility in water and tendency to self-aggregate in the liquid phase. A preliminary step is then performed to set the solubility conditions of rifaximin at the highest concentration used in the test (0.5 mg/ml). The exploratory step is performed to set the solubilization conditions of rifaximin and the culture conditions of the microbial strains. Given the poor solubility of rifaximin powder in water and the tendency for self-aggregation in the liquid phase, a solubilization test in DMSO (dimethyl sulfoxide) is performed. […] The first concentration used in the test and the subsequent dilutions (set up in Tryptic soy broth-TSB or Sabouraud dextrose broth-SDB, base-2 serial dilutions) were defined in agreement with the client, based on literature data. The strains were expanded first in liquid medium and then in agarized medium, as described in Table 2.2.1, obtaining growth results that confirmed the use of these media and conditions for the microdilution test as well.
# [5] = rifamycin 0.5 mg/ml (stock in sterile water)
smiles,measurement,setting,value
CO[C@H]1/C=C/O[C@@]2(C)Oc3c(C)c(O)c4c(O)c(cc(O)c4c3C2=O)NC(=O)/C(C)=C\C=C\[C@H](C)[C@H](O)[C@@H](C)[C@@H](O)[C@@H](C)[C@H](OC(C)=O)[C@@H]1C [rifamycin],"Growth inhibition, conclusion in words",[1]; Bifidobacterium longum,inhibits the growth
same,Abatement of strain growth,[1]; [5],87.5%
same,"Growth inhibition, conclusion in words",[2],inhibits the growth
same,Abatement of strain growth,[2]; [5],88.9%
same,"Growth inhibition, conclusion in words",[3],inhibits the growth
same,Abatement of strain growth,[3]; [5],79.7%
CO[C@H]1/C=C/O[C@@]2(C)Oc3c(C)c(O)c4c(O)c(c5c(nc6cc(C)ccn65)c4c3C2=O)NC(=O)/C(C)=C\C=C\[C@H](C)[C@H](O)[C@@H](C)[C@@H](O)[C@@H](C)[C@H](OC(C)=O)[C@@H]1C [rifaximin],"Growth inhibition, conclusion in words",[1]; Bifidobacterium longum,inhibits the growth
same,Growth inhibition,"[1]; Bifidobacterium longum, virtually all concentrations except 0.0039 mg/ml",> 99.9%
same,Abatement of strain growth,[1]; rifaximin 0.0039 mg/ml,45.5%
same,Abatement of strain growth,[1]; rifaximin 0.0078 mg/ml,>99.9%
same,Abatement of strain growth,[1]; rifaximin 0.015 mg/ml,>99.9%
same,Abatement of strain growth,[1]; rifaximin 0.031 mg/ml,>99.9%
same,Abatement of strain growth,[1]; rifaximin 0.063 mg/ml,>99.9%
same,Abatement of strain growth,[1]; rifaximin 0.125 mg/ml,>99.9%
same,Abatement of strain growth,[1]; rifaximin 0.25 mg/ml,98.7%
same,Abatement of strain growth,[1]; rifaximin 0.5 mg/ml,>99.9%
same,Highest concentration in DMSO with no visible precipitates and clear,[4],50 mg/mL
same,"Growth inhibition, conclusion in words",[2],does not inhibit the growth
same,Abatement of strain growth,[2]; rifaximin 0.0039 mg/ml,1.5%
same,Abatement of strain growth,[2]; rifaximin 0.0078 mg/ml,−1.7%
same,Abatement of strain growth,[2]; rifaximin 0.015 mg/ml,−3.3%
same,Abatement of strain growth,[2]; rifaximin 0.031 mg/ml,−2.1%
same,Abatement of strain growth,[2]; rifaximin 0.063 mg/ml,−2.6%
same,Abatement of strain growth,[2]; rifaximin 0.125 mg/ml,−3.5%
same,Abatement of strain growth,[2]; rifaximin 0.25 mg/ml,−1.2%
same,Abatement of strain growth,[2]; rifaximin 0.5 mg/ml,−4.7%
same,"Growth inhibition, conclusion in words",[3],inhibits the growth
same,Growth inhibition,[3]; at ≥0.031 mg/ml concentrations,~99%
same,Abatement of strain growth,[3]; rifaximin 0.0039 mg/ml,45.7%
same,Abatement of strain growth,[3]; rifaximin 0.0078 mg/ml,54.9%
same,Abatement of strain growth,[3]; rifaximin 0.015 mg/ml,94.5%
same,Abatement of strain growth,[3]; rifaximin 0.031 mg/ml,>99.9%
same,Abatement of strain growth,[3]; rifaximin 0.063 mg/ml,99.6%
same,Abatement of strain growth,[3]; rifaximin 0.125 mg/ml,>99.9%
same,Abatement of strain growth,[3]; rifaximin 0.25 mg/ml,98.5%
same,Abatement of strain growth,[3]; rifaximin 0.5 mg/ml,98.1%
